Reference: US20240366770A1, “DEGRADATION OF BRUTON'S TYROSINE KINASE (BTK) BY CONJUGATION OF BTK INHIBITORS WITH E3 LIGASE LIGAND AND METHODS OF USE” (BeiGene Switzerland GmbH, priority 2021, published 2024)
pIC50: −log10 of the molar value.

Tests used:
BTK = target: T1, BTK (Homo sapiens, UniProt Q06187); assay: BTK degradation in TMD-8 cells (HTRF assay); type: cell-based; conditions: 6 h treatment, IC50 (DC50) of BTK degradation
T1 construct: High control=Cell group with added DMSO and without compound, indicating microplate readings without BTK degradation; endogenous in cells; host or cells: TMD-8
Description: (§1) TMD-8 cells were treated with compounds diluted in 0.2% DMSO, dilution was done according to the following protocol: (1) making 500× stock solution in DMSO from 1 mM by 6-fold dilution, total 8 doses were included; (2) making 2× solution in cell culture medium by transferring 0.5 μl 500× stock solution into 125 μl medium; (3) adding 15 μl of 2× solution to cells for incubation of 6 h.
After 6 h treatment, 10 μl 4× lysis buffer was added to each well; the plate was sealed and incubated for 30 min at room temperature on a plate shaker; Once the cells was lysed, 16 μL of cell lysate were transferred to a PE 384-well HTRF detection plate; 4 μL of pre-mixed HTRF antibodies were added to each well; the plate was covered with a plate sealer, and then spinned at 1000 rpm for 1 min, then incubated overnight at room temperature; the results were read on BMG PheraStar with HTRF protocol (337 nm-665 nm-620 nm).
The IC50 (DC50) value of a compound can be obtained by fitting the following equation
(§2) wherein, X and Y are known values, and IC50, Hillslope, Top and Bottom are the parameters obtained by fitting with software. Y is the inhibition percentage (calculated from the equation), X is the concentration of the compound; IC50 is the concentration of the compound when the 50% inhibition is reached. The smaller the IC50 value is, the stronger the inhibitory ability of the compound is. Vice versa, the higher the IC50 value is, the weaker the ability the inhibitory ability of the compound is; Hillslope represents the slope of the fitted curve, generally around 1 *; Bottom represents the minimum value of the curve obtained by data fitting, which is generally 0%±20%; Top represents the maximum value of the curve obtained by data fitting, which is generally 100%±20%. The experimental data were fitted by calculating and analyzing with Dotmatics data analysis software.

HEK-293 cells = assay: HEK-293 cytotoxicity detection (CellTiter-Glo); type: cell-based; conditions: Homo sapiens; HEK-293 cells, 72 h incubation, CellTiter-Glo luminescence, IC50 of cell proliferation inhibition; read-out: HEK293
Description: as §1, with “HEK-293 cells” for “TMD-8 cells”, “from 5” for “from 1”, “by 4-fold” for “by 6-fold”, “0.5 ul” for “0.5 μl”, “adding 50” for “adding 15”, “of 72” for “of 6”
25 μl of the CellTiter-Glo®Reagent [(Promega) -Cat No. G7572] was added to each well in the 96-well plate. The contents were mixed for 2 minutes on an orbital shaker to induce cell lysis. The plate was then allowed to incubate at room temperature for 10 minutes to stabilize luminescent signal. Luminescence was recorded on BMG PheraStar with luminescence protocol.
The IC50 value of a compound can be obtained by fitting the following equation
as §2, with “Wherein,” for “wherein,”

T1 sequence (Q06187 whole entry): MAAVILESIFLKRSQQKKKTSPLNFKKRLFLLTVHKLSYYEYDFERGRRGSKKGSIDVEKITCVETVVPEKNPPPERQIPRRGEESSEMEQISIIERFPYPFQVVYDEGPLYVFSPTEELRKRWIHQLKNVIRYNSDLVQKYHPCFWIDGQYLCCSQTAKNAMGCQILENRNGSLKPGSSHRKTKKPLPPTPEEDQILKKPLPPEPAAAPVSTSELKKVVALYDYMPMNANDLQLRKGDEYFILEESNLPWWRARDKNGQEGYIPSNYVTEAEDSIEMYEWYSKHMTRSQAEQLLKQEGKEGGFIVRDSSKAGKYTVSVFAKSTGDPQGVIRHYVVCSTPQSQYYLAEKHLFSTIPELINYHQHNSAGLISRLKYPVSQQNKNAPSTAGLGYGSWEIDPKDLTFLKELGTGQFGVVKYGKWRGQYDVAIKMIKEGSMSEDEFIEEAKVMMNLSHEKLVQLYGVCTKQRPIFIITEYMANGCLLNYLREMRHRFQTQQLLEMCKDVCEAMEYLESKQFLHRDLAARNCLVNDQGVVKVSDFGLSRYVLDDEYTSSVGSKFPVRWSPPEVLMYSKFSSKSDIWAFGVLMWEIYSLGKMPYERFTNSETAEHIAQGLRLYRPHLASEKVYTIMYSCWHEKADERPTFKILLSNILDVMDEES

Compound | DC50 (BTK) [nM] | pIC50 (HEK-293 cells)
Cc1cc2c(cc1N1CCN(CC3CCN(c4ccc(N5CCC(=O)NC5=O)cc4)CC3)CC1)[nH]c1ncnc(-c3cc(CO)c([C@@H](C)NC(=O)c4nc(C(C)(C)C)no4)cc3F)c12 [Example 40, (R)-3-(tert-butyl)-N-(1-(4-(7-(4-((1-(4-(2,4-dioxotetrahydropyrimidin-1(2H)-yl)phenyl)piperidin-4-yl)methyl)piperazin-1-yl)-6-methyl-9H-pyrimido[4,5-b]indol-4-yl)-5-fluoro-2-(hydroxymethyl)phenyl)ethyl)-1,2,4-oxadiazole-5-carboxamide] | 2.12 | < 5.00
Cc1c([C@@H](C)NC(=O)c2noc(C(C)(C)C)n2)ccc(-c2ncnc3[nH]c4cc(N5CCN(Cc6ccc7c(c6)C6(CC6)C(=O)N7C6CCC(=O)NC6=O)CC5)ccc4c23)c1F (stereo partly drawn) [Example 79, 5-(tert-butyl)-N-((1R)-1-(4-(7-(4-((1′-(2,6-dioxopiperidin-3-yl)-2′-oxospiro[cyclopropane-1,3′-indolin]-5′-yl)methyl)piperazin-1-yl)-9H-pyrimido[4,5-b]indol-4-yl)-3-fluoro-2-methylphenyl)ethyl)-1,2,4-oxadiazole-3-carboxamide] | 15.9 | < 5.00
Cc1cc(-c2ncnc3[nH]c4cc(N5CCN(CC6CCN(c7ccc(N8CCC(=O)NC8=O)cc7)CC6)CC5)ccc4c23)ccc1[C@@H](C)NC(=O)c1nc(C(C)(C)C)no1 [Example 6, (R)-3-(tert-butyl)-N-(1-(4-(7-(4-((1-(4-(2,4-dioxotetrahydropyrimidin-1(2H)-yl)phenyl)piperidin-4-yl)methyl)piperazin-1-yl)-9H-pyrimido[4,5-b]indol-4-yl)-2-methylphenyl)ethyl)-1,2,4-oxadiazole-5-carboxamide] | 0.394 | < 5.00
Cc1cc(-c2ncnc3[nH]c4cc(N5CCC6(CC5)CCN([C@H]5C[C@@H](c7ccc([C@H]8CCC(=O)NC8=O)cc7)C5)CC6)ccc4c23)ccc1[C@@H](C)NC(=O)c1nc(C(C)(C)C)no1 [Example 113, 3-(tert-butyl)-N—((R)-1-(4-(7-(9-((1S,3s)-3-(4-((R)-2,6-dioxopiperidin-3-yl)phenyl)cyclobutyl)-3,9-diazaspiro[5.5]undecan-3-yl)-9H-pyrimido[4,5-b]indol-4-yl)-2-methylphenyl)ethyl)-1,2,4-oxadiazole-5-carboxamide] | 3.46 | 5.95
Cc1cc(-c2ncnc3[nH]c4cc(N5CCN([C@H]6C[C@H](c7ccc(N[C@@H]8CCC(=O)NC8=O)cc7)C6)CC5)ccc4c23)ccc1[C@@H](C)NC(=O)c1nc(C2(C)CC2)no1 [Example 117, N—((R)-1-(4-(7-(4-((1R,3r)-3-(4-(((R)-2,6-dioxopiperidin-3-yl)amino)phenyl)cyclobutyl)piperazin-1-yl)-9H-pyrimido[4,5-b]indol-4-yl)-2-methylphenyl)ethyl)-3-(1-methylcyclopropyl)-1,2,4-oxadiazole-5-carboxamide] | 0.981 | < 5.00
Cc1cc(-c2ncnc3[nH]c4cc(C5CCN(CC6CCN(c7ccc(N8CCC(=O)NC8=O)cc7)CC6)CC5)ccc4c23)ccc1[C@@H](C)NC(=O)c1nc(C(C)(C)C)no1 [Example 5, (R)-3-(tert-butyl)-N-(1-(4-(7-(1-((1-(4-(2,4-dioxotetrahydropyrimidin-1(2H)-yl)phenyl)piperidin-4-yl)methyl)piperidin-4-yl)-9H-pyrimido[4,5-b]indol-4-yl)-2-methylphenyl)ethyl)-1,2,4-oxadiazole-5-carboxamide] | 0.731 | 5.49
COc1cc2c(cc1N1CCN(C3CCN(c4cccc(C5CCC(=O)NC5=O)c4)C3)CC1)[nH]c1ncnc(-c3ccc([C@@H](C)NC(=O)c4noc(C(C)(C)C)n4)c(C)c3F)c12 (stereo partly drawn) [Example 61, 5-(tert-butyl)-N-((1R)-1-(4-(7-(4-(1-(3-(2,6-dioxopiperidin-3-yl)phenyl)pyrrolidin-3-yl)piperazin-1-yl)-6-methoxy-9H-pyrimido[4,5-b]indol-4-yl)-3-fluoro-2-methylphenyl)ethyl)-1,2,4-oxadiazole-3-carboxamide] | 5.52 | < 5.00
Cc1c([C@@H](C)NC(=O)c2nc(C3(C)CC3)no2)ccc(-c2ncnc3[nH]c4cc(N5CCN(C6CC(c7ccc([C@H]8CCC(=O)NC8=O)cc7)C6)CC5)ccc4c23)c1F (stereo partly drawn) [Example 66, N—((R)-1-(4-(7-(4-(3-(4-((R)-2,6-dioxopiperidin-3-yl)phenyl)cyclobutyl)piperazin-1-yl)-9H-pyrimido[4,5-b]indol-4-yl)-3-fluoro-2-methylphenyl)ethyl)-3-(1-methylcyclopropyl)-1,2,4-oxadiazole-5-carboxamide] | 4.1 | < 5.00
Cc1cc(-c2ncnc3[nH]c4cc(N5CCC6(CC5)CCN(C5CC(c7ccc(NC8CCC(=O)NC8=O)cc7)C5)C6)ccc4c23)ccc1[C@@H](C)NC(=O)c1nc(C(C)(C)C)no1 (stereo partly drawn) [Example 103, 3-(tert-butyl)-N-((1R)-1-(4-(7-(2-(3-(4-((2,6-dioxopiperidin-3-yl)amino)phenyl)cyclobutyl)-2,8-diazaspiro[4.5]decan-8-yl)-9H-pyrimido[4,5-b]indol-4-yl)-2-methylphenyl)ethyl)-1,2,4-oxadiazole-5-carboxamide] | 3.05 | 5.97
Cc1cc(-c2ncnc3[nH]c4cc(CCN5CCN(C6CN(c7ccc(N8CCC(=O)NC8=O)cc7)C6)CC5)ccc4c23)ccc1[C@@H](C)NC(=O)c1nc(C(C)(C)C)no1 [Example 105, (R)-3-(tert-butyl)-N-(1-(4-(7-(2-(4-(1-(4-(2,4-dioxotetrahydropyrimidin-1(2H)-yl)phenyl)azetidin-3-yl)piperazin-1-yl)ethyl)-9H-pyrimido[4,5-b]indol-4-yl)-2-methylphenyl)ethyl)-1,2,4-oxadiazole-5-carboxamide] | 0.512 | < 5.00
Cc1cc(-c2ncnc3[nH]c4cc(N5CCC6(CC5)CCN([C@H]5C[C@H](c7ccc([C@H]8CCC(=O)NC8=O)cc7)C5)CC6)ccc4c23)ccc1[C@@H](C)NC(=O)c1nc(C(C)(C)C)no1 [Example 112, 3-(tert-butyl)-N—((R)-1-(4-(7-(9-((1R,3r)-3-(4-((R)-2,6-dioxopiperidin-3-yl)phenyl)cyclobutyl)-3,9-diazaspiro[5.5]undecan-3-yl)-9H-pyrimido[4,5-b]indol-4-yl)-2-methylphenyl)ethyl)-1,2,4-oxadiazole-5-carboxamide] | 2.47 | 5.72
COc1cc2c(cc1N1CCN(C3CC(c4ccc([C@@H]5CCC(=O)NC5=O)cc4)C3)CC1)[nH]c1ncnc(-c3ccc([C@@H](C)NC(=O)c4nc(C(C)(C)C)no4)c(C)c3F)c12 (stereo partly drawn) [Example 55, 3-(tert-butyl)-N—((R)-1-(4-(7-(4-(3-(4-((S)-2,6-dioxopiperidin-3-yl)phenyl)cyclobutyl)piperazin-1-yl)-6-methoxy-9H-pyrimido[4,5-b]indol-4-yl)-3-fluoro-2-methylphenyl)ethyl)-1,2,4-oxadiazole-5-carboxamide] | 6.97 | < 5.00
Cc1cc(-c2ncnc3[nH]c4cc(N5CCN(C6CC(c7ccc([C@@H]8CCC(=O)NC8=O)cc7)C6)CC5)ccc4c23)c(F)cc1[C@@H](C)NC(=O)c1nc(C2(C)CC2)no1 (stereo partly drawn) [Example 90, N—((R)-1-(4-(7-(4-(3-(4-((S)-2,6-dioxopiperidin-3-yl)phenyl)cyclobutyl)piperazin-1-yl)-9H-pyrimido[4,5-b]indol-4-yl)-5-fluoro-2-methylphenyl)ethyl)-3-(1-methylcyclopropyl)-1,2,4-oxadiazole-5-carboxamide] | 0.86 | < 5.00
